The target of one assay is T1, C481S BTK protein (Homo sapiens, UniProt Q06187, C481S).
T1 construct: expressed in transfected cells; host or cells: 293T BTK MUT (C481S) cells
The experiment in a line: BTK protein degradation assay (Western blotting), C481S BTK. It is filed as cell-based. The settings on record: concentration range accounting for 50% degradation of C481S BTK protein, 293T BTK MUT (C481S) cells. The gist of the method:
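TMD-8, RAMOS or 293T BTK C481S cells were treated 24 h with compounds from 10-fold DMSO stock series (10 to 0.0001 mM). BTK was measured by Western blot with GAPDH/β-actin references. Activity was binned by concentration giving 50% degradation: +++ (0.0001-0.01 μM), ++ (0.01-1 μM), + (1-10 μM), − (>10 μM).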

The target in another assay is T2, WT BTK protein (Homo sapiens, UniProt Q06187).
T2 construct: measured for intracellular BTK protein levels by Western blotting; endogenous in cells; host or cells: TMD-8 or RAMOS cells
The experiment in a line: BTK protein degradation assay (Western blotting), WT BTK. The class given is cell-based. The settings on record: concentration range accounting for 50% degradation of WT BTK protein, TMD-8 or RAMOS cells, 24 hours. The gist of the method: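 TMD-8 cells (1×10^6 cells/mL) treated 24 h with compound serial dilutions, then lysed in RIPA. Equal protein loads analysed by Western blot for BTK with GAPDH/β-actin as loading controls; activity binned by concentration giving 50% WT BTK degradation.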
(In general: A western blot detects proteins with antibodies after separation by electrophoresis.)

In patent publication US12161722B2, “Bifunctional heterocyclic compound having BTK degradation function via ubiquitin proteasome pathway, and use thereof” (KOREA RESEARCH INSTITUTE OF CHEMICAL TECHNOLOGY, priority 2021, dated 2024) one finds DC50 data, which are given here for two compounds.

T1 sequence (Q06187 whole entry C481S): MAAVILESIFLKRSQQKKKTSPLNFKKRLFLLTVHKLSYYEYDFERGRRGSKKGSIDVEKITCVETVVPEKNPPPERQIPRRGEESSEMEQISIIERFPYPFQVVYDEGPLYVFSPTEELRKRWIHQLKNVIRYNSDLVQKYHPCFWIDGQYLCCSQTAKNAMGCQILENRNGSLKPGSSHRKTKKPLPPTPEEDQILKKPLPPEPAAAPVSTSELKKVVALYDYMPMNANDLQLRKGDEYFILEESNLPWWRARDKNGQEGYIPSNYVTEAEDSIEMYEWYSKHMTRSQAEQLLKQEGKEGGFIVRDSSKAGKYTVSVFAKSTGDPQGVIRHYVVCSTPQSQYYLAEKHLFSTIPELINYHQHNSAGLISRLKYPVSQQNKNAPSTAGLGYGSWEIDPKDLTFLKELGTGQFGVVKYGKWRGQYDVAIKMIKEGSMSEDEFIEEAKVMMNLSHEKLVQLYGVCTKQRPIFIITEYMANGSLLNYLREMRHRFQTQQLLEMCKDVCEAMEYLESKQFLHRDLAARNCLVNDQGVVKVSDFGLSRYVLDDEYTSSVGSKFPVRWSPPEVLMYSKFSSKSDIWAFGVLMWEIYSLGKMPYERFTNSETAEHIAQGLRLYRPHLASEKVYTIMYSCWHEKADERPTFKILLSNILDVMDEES
T2 sequence (Q06187 whole entry): as the sequence (Q06187 whole entry C481S) above, with S481C counted along it

The DC50 is the concentration giving 50% degradation. With `Cc1cccc(C)c1Nc1nn(C)c2nc(Nc3ccc4c(c3)CN(C[C@H]3CCN(c5ccc6c(c5)C(=O)N(C5CCC(=O)NC5=O)C6=O)C3)CC4)ncc12` (stereo partly drawn) [Compound 144, 5-((R)-3-((7-((3-((2,6-dimethylphenyl)amino)-1-methyl-1H-pyrazolo[3,4-d]pyrimidin-6-yl)amino)-3,4-dihydroisoquinolin-2 (1H)-yl)methyl)pyrrolidin-1-yl)-2-(2,6-dioxopiperidin-3-yl)isoindoline-1,3-dione], the DC50 on C481S BTK protein and at WT BTK protein was 0.1 to 10 nM throughout.

As to `Cc1cccc(C)c1Nc1nn(C)c2nc(Nc3ccc4c(c3)CN(C3CN(CC5CCN(c6ccc7c(c6)C(=O)N(C6CCC(=O)NC6=O)C7=O)CC5)C3)CC4)ncc12` (stereo not shown) [Compound 149, 5-(4-((3-(7-((3-((2,6-Dimethylphenyl)amino)-1-methyl-1H-pyrazolo[3,4-d]pyrimidin-6-yl)amino)-3,4-dihydroisoquinolin-2 (1H)-yl)azetidin-1-yl)methyl)piperidin-1-yl)-2-(2,6-dioxopiperidin-3-yl)isoindoline-1,3-dione], the DC50 at C481S BTK protein and on WT BTK protein was 0.1 to 10 nM throughout.
